Measurements reported in patent US7915293B2, “Ubiquitin ligase inhibitors” (Rigel Pharmaceuticals, Inc., priority 2003, dated 2011).

Experiments:
Design in all cases: key: “+” indicates that the compound exibits inhibitory activity; “−” indicates that low or no inhibitory activity was observed
A549 cells [1] = experiment: Non-photographic proliferation analysis (Promega Cell titer Aqueous), A549; format: cell-based; details: 6 concentrations tested
Procedure: (§1) A549 (ATCC# CCL-185), HeLa (ATCC# CCL-2), HCT116 (ATCC# CCL-247), and H1299 (ATCC# CRL-5803) cells were maintained in T175 flasks following the ATCC recommended media and handling procedures. Flasks reaching approximately 70% confluency were trypsinized and resuspended in RPMI media (Cell-Gro catalog number 10-040-CM) modified to contain 5% FBS, 100 ug/mlPen/Strep (Cell-Gro catalog number 30-002-CL), and 0.3 mg/ml L-Glutamine (Cell-Gro catalog number 25-003-CL). A 20,000 cells/ml solution was made for plating. Cells were plated in black Packard 96 well plates by placing 100 μl per well (2,000 cells per well).
(§2) Compounds and additional media were added 24 hours after cell plating. A compound master plate was created with concentrations 500 times greater than the final concentration added to the cells. All compound testing was done in duplicate using 6.3 fold dilutions starting with 10 mM. All outside wells (and 4 internal wells) were DMSO controls. Taxol and at least one additional control were run on all plates. Three microliters of the compound master plate were added to deep well blocks containing 750 μl of RPMI media. One hundred microliters were transferred from the compound/media deep well blocks to the plated cells resulting in a 500 fold dilution of the compounds. Cells were grown at 37° C., 5% CO2 for 48 hours.
(§3) Some cell plates were treated with Promega Cell titer Aqueous 1 kit (promega—VWR catalog number G3580). In this case, 48 hours after the test compound were added, 100 μl of media were removed and 20 μl of cell titer reagent were added to all wells. Plates were incubated at 37° C. for 45 minutes prior to absorbance reads on the Wallac plate reader at 490 nm for 0.1 sec/well.

A549 cells [2] = experiment: Cell proliferation assay, photographic image analysis of proliferation, apoptosis and death (PAD assay), A549; format: cell-based; details: 6 concentrations tested
Procedure, shortened: (§4)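 Cells grown in RPMI with 5% FBS (2,000/well) and dosed 24 h after plating with 6.3-fold dilutions in duplicate (master plate 500× final, top 10 mM stock). After 48 h at 37 °C, cells formamide-fixed and DAPI-stained. Image analysis counted live, apoptotic and dead cells.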

HeLa cells [3] = experiment: Non-photographic proliferation analysis (Promega Cell titer Aqueous), HeLa; format: cell-based; details: 6 concentrations tested
Procedure: as §1, §2, §3

HeLa cells [4] = experiment: Cell proliferation assay, photographic image analysis of proliferation, apoptosis and death (PAD assay), HeLa; format: cell-based; details: 6 concentrations tested
Procedure, shortened: as §4

[5] = biological target: E3 (His-APC11/APC2-"APC") (Homo sapiens, UniProt Q9NYG5+Q9UJX6); experiment: Plate-based E3 ligase assay (APC FLAG), auto-ubiquitination; format: biochemical; details: for APC Flag 8 pt: 8 concentrations tested
E3 (His-APC11/APC2-"APC"), sequence (Q9NYG5 whole entry): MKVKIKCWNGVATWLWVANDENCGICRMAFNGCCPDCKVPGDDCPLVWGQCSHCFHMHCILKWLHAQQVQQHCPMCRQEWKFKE
E3 (His-APC11/APC2-"APC"), sequence (Q9UJX6 whole entry): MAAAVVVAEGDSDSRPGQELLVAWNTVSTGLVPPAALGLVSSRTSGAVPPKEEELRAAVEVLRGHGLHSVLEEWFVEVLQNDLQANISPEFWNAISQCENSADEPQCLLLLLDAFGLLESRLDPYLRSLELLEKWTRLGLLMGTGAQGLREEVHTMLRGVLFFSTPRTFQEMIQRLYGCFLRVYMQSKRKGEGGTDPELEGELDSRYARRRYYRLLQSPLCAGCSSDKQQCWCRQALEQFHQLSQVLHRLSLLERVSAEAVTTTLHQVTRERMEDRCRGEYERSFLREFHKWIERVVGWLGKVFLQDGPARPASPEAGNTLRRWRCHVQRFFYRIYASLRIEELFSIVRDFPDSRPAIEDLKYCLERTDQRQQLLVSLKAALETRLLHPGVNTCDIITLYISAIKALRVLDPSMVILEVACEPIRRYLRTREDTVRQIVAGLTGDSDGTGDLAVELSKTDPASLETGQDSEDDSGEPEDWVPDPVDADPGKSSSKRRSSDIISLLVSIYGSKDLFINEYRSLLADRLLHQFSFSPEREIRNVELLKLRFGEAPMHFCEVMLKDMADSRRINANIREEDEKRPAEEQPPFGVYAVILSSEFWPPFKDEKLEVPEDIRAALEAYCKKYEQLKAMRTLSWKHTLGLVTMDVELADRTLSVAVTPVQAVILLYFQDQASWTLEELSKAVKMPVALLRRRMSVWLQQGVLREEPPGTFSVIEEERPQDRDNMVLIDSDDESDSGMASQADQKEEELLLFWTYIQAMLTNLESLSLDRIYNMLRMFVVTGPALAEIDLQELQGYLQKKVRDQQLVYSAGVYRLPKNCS
Procedure, shortened: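 His-APC11/APC2 auto-ubiquitination was run in casein-blocked nickel plates for 1 h at room temperature, with E1 at 5 ng/well, UbcH5c at 20 ng/well and APC at 100 ng/well. Buffer was 62.5 mM Tris pH 7.6, 3 mM MgCl2, 1 mM DTT, 2.5 mM ATP and Flag-ubiquitin at 100 ng/well. Detection used anti-Flag/HRP chemiluminescence, and IC50 was typically from 6 or 8 concentrations versus a DMSO control.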

Row | SMILES | Cell Titer-Aqueous, A549 6 pt (A549 cells [1]) | PAD Assay, A549 6 pt (A549 cells [2]) | Cell Titer-Aqueous, HELA 6 pt (HeLa cells [3]) | PAD Assay, HELA 6 pt (HeLa cells [4]) | APC Flag 8 pt [5] | APC Flag (2 pt) ([5]; 2 concentrations tested)
1 | COc1ccc(NS(=O)(=O)c2cc(Cl)c(Oc3ccc([N+](=O)[O-])cc3Cl)c(Cl)c2)cc1Cl [Example 201, 3,5-dichloro-N-(3-chloro-4-methoxyphenyl)-4-(2-chloro-4-nitrophenoxy)benzene-sulfonamide] | + | + | + | + | + | 
2 | COc1cc(NS(=O)(=O)c2cc(Cl)c(Oc3ccc([N+](=O)[O-])cc3Cl)c(Cl)c2)c(OC)cc1Cl [Example 202, 3,5-dichloro-N-(4-chloro-2,5-dimethoxy-phenyl)-4-(2-chloro-4-nitrophenoxy)benzene-sulfonamide] | + | + | + | + | − | 
3 | O=[N+]([O-])c1ccc(Oc2c(Cl)cc(S(=O)(=O)Nc3cccc4cc[nH]c34)cc2Cl)c(Cl)c1 [Example 168, 3,5-dichloro-4-(2-chloro-4-nitrophenoxy)-N-1H-indol-7-ylbenzenesulfonamide] | + | + | + | + | + | 
4 | O=[N+]([O-])c1ccc(Oc2c(Cl)cc(S(=O)(=O)Nc3ncccn3)cc2Cl)c(Cl)c1 [Example 222, 3,5-dichloro-4-(2-chloro-4-nitrophenoxy)-N-pyrimidin-2-ylbenzenesulfonamide] | − |  | − |  | + | 
5 | O=[N+]([O-])c1ccc(Oc2c(Cl)cc(S(=O)(=O)Nc3cccnc3)cc2Cl)c(Cl)c1 [Example 205, 3,5-dichloro-4-(2-chloro-4-nitrophenoxy)-N-pyridin-3-ylbenzenesulfonamide] | − |  | − |  | − | 
6 | O=[N+]([O-])c1ccc(Oc2c(Cl)cc(S(=O)(=O)Nc3ccccc3I)cc2Cl)c(Cl)c1 [Compound 209] | + | + | + | + | + | 
7 | COc1ccc(NS(=O)(=O)c2cc(Cl)c(Oc3ccc([N+](=O)[O-])cc3Cl)c(Cl)c2)cc1 [Compound 208] | + | + | + | + | − | 
8 | O=[N+]([O-])c1ccc(Oc2c(Cl)cc(S(=O)(=O)Nc3ccc4[nH]ccc4c3)cc2Cl)c(Cl)c1 [Example 174, 3,5-dichloro-4-(2-chloro-4-nitrophenoxy)-N-1H-indol-5-ylbenzenesulfonamide] | + | + | + | + | + | 
9 | N#Cc1ccc(NS(=O)(=O)c2cc(Cl)c(Oc3ccc([N+](=O)[O-])cc3Cl)c(Cl)c2)cc1 [Example 200, 3,5-dichloro-4-(2-chloro-4-nitrophenoxy)-N-(4-cyanophenyl)benzenesulfonamide] | + | + | + | + | + | 
10 | COc1ccc(NS(=O)(=O)c2cc(Cl)c(Oc3ccc([N+](=O)[O-])cc3Cl)c(Cl)c2)c(OC)n1 [Example 206, 3,5-dichloro-4-(2-chloro-4-nitrophenoxy)-N-(2,6-dimethoxypyridin-3-yl)benzene-sulfonamide] | + |  | + |  | − | 
11 | CC1(C)Oc2ccc(NS(=O)(=O)c3cc(Cl)c(Oc4ccc([N+](=O)[O-])cc4Cl)c(Cl)c3)cc2NC1=O [Example 213, 3,5-dichloro-4-(2-chloro-4-nitrophenoxy)-N-(2,2-dimethyl-3-oxo-3,4-dihydro-2H-1,4-benzoxazin-6-yl)benzenesulfonamide] | + |  | + |  | + | 
12 | O=[N+]([O-])c1ccc(Oc2c(Cl)cc(S(=O)(=O)NC(=S)Nc3ccc(Cl)c(Cl)c3)cc2Cl)c(Cl)c1 [Compound 148, 3,5-dichloro-4-(2-chloro-4-nitrophenoxy)-N-{[(3,4-dichlorophenyl)amino]carbothioyl}benzenesulfonamide] | − |  | − |  | + | 
13 | O=[N+]([O-])c1ccc(Oc2c(Cl)cc(S(=O)(=O)Nc3ccccc3Cl)cc2Cl)c(Cl)c1 [Example 156, 3,5-dichloro-4-(2-chloro-4-nitrophenoxy)-N-(2-chlorophenyl)benzenesulfonamide] | + |  | + | + | + | 
14 | COc1ccc(NS(=O)(=O)c2cc(Cl)c(Oc3ccc([N+](=O)[O-])cc3Cl)c(Cl)c2)cc1OC [Example 170, 3,5-dichloro-4-(2-chloro-4-nitrophenoxy)-N-(3,4-dimethoxyphenyl)benzenesulfonamide] | + |  | + |  | + | 
15 | COc1cccc(NS(=O)(=O)c2cc(Cl)c(Oc3ccc([N+](=O)[O-])cc3Cl)c(Cl)c2)c1F [Example 166, 3,5-dichloro-4-(2-chloro-4-nitrophenoxy)-N-(2-fluoro-3-methoxyphenyl)benzene-sulfonamide] | + |  | + |  | + | 
16 | COc1ccc(N(S(=O)(=O)c2cc(Cl)c(Oc3ccc([N+](=O)[O-])cc3Cl)c(Cl)c2)S(=O)(=O)c2cc(Cl)c(Oc3ccc([N+](=O)[O-])cc3Cl)c(Cl)c2)cc1Cl [Example 155, 3,5-dichloro-N-(3-chloro-4-methoxyphenyl)-4-(2-chloro-4-nitrophenoxy)-N-(1,3-dichloro-2-(2-chloro-4-nitrophenoxy)-5-sulfonylbenzene)benzenesulfonamide] | − | + | − |  | + | 
17 | O=[N+]([O-])c1ccc(Oc2c(Cl)cc(S(=O)(=O)Nc3cccc(-c4ccccc4)c3)cc2Cl)c(Cl)c1 [Example 179, N-biphenyl-3-yl-3,5-dichloro-4-(2-chloro-4-nitrophenoxy)benzenesulfonamide] | − |  | + |  | + | 
18 | O=[N+]([O-])c1ccc(Oc2c(Cl)cc(S(=O)(=O)NC3Cc4ccccc4C3)cc2Cl)c(Cl)c1 [Example 224, 3,5-dichloro-4-(2-chloro-4-nitrophenoxy)-N-(2,3-dihydro-1H-inden-2-yl)benzene-sulfonamide] | + |  | + |  |  | − (2 pt)
